Source: publication PMC6278658, “Two New Altenusin/Thiazole Hybrids and a New Benzothiazole Derivative from the Marine Sponge-Derived Fungus Alternaria sp. SCSIOS02F49” (Molecules, 2018)

Assays:
[1] = DPPH radical scavenging activity; conditions: for IC50: DPPH 0.1 mM in ethanol, 30 min at room temperature in the dark, absorbance at 517 nm, triplicates, read-out: DPPH Free Radical Scavenging Activity (IC50); for DPPH free-radical-scavenging activity compared with BHT: comparison with positive control BHT
Method: The DPPH (2,2-diphenyl-1-picrylhydrazyl) radical scavenging ability of the sample was conducted based on the method described by Kumagai et al. with minor modifications. The reaction mixture was with DPPH (0.1 mM, dissolved in ethanol) and various concentrations of sample in equal volumes, which was incubated at room temperature for 30 min in the dark. The absorbance of the mixture was measured at 517 nm using UV (UV-2600, UNICO Instrument Co. Ltd., Shanghai, China). The final concentrations of each compound in the wells were confined as 1000, 333, 111, 37.0, 12.3, 4.11, 1.37, and 0.46 μM. The ethanol and butylated hydroxytoluene (BHT), instead of samples, were used for a blank and positive control, respectively. Each assay was carried out in triplicates. IC50, the concentration of elimination of 50% DPPH radical scavenging activity, was measured by non-liner regression.

[2] = target: T1, Human recombinant COX-2 enzyme (Homo sapiens, UniProt P35354); experiment: COX-2 inhibitory activity assay (Cayman COX Fluorescent Inhibitor Screening Assay Kit); format: biochemical; conditions: 15 min pre-incubation, arachidonic acid substrate, fluorescence 530/595 nm, triplicates
T1 construct: purchased Cayman #700100
T1 sequence (P35354 18-604): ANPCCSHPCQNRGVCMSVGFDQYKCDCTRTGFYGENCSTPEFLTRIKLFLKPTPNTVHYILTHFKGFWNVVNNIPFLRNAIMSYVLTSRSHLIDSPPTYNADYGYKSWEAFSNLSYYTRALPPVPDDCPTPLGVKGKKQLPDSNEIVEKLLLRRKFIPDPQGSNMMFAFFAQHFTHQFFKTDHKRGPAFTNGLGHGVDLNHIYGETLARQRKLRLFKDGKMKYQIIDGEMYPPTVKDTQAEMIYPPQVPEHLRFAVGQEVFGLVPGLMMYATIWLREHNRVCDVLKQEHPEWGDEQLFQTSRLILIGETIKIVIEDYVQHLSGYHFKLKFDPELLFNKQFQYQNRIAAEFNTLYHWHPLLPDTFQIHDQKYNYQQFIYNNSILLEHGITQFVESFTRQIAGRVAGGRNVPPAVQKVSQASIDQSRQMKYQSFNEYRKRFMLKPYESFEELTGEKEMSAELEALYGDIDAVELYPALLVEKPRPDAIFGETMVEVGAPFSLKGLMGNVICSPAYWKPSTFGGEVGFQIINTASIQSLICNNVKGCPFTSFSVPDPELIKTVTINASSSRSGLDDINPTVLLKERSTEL
Method: The COX-2 inhibitory activity assay of sample was conducted according to a previously reported method. […] Human recombinant COX-2 enzyme was pre-incubated with inhibitors for 15 min at normal temperature, followed by the addition of heme and fluorometric substrate and incubation for another 15 min at normal temperature. The reaction was started by the addition of arachidonic acid and allowed to proceed for 2 min. […] Each assay was carried out in triplicates. IC50, was measured by non-liner regression.

[3] = parameters: method as in PMID 22061662; conditions: previous study; cited from earlier work

| IC50 [1] [µM] | IC50 [2] [µM] | Compound | DPPH free-radical-scavenging activity compared with BHT [1] | radical scavenging activity in comparison with vitamin C [3] |
| --- | --- | --- | --- | --- |
| 170.3 ± 0.06 |  | Cc1cc(C(C)(C)C)c(O)c(C(C)(C)C)c1 [BHT, butylated hydroxytoluene, reference compound] |  |  |
| > 1000 | > 30 | COc1cc(O)c(C(=O)O)c(-c2c(C)cc(O)c3ncsc23)c1 [Compound 1, Altenusinoides A] |  |  |
| > 1000 | > 30 | COc1cc(O)c(C(=O)O)c(-c2cc(O)c3ncsc3c2C)c1 [Compound 2, altenusinoides B] |  |  |
| > 1000 | > 30 | COC(=O)Cc1cc(O)cc2scnc12 [Compound 3, methyl 2-(6-hydroxybenzothiazol-4-yl) acetate] |  |  |
| 100.6 ± 0.025 | 9.5 ± 0.08 | COc1cc(O)cc(-c2cc(O)c(O)cc2C)c1 [Compound 5, 5′-methoxy-6-methyl-biphenyl-3,4,3′-triol] | higher DPPH free-radical-scavenging activities than BHT | strong radical scavenging activity |
| > 1000 | > 30 | COc1cc(O)cc(C2=C(C)C[C@H](O)C2=O)c1 [Compound 6, (S)-alternariphent A1] |  |  |

| Compound | IC50 [1] [µM] | IC50 [2] [µM] | DPPH free-radical-scavenging activity compared with BHT [1] | radical scavenging activity in comparison with vitamin C [3] |
| --- | --- | --- | --- | --- |
| COc1cc(O)c(C(=O)O)c(-c2cc(O)c(O)cc2C)c1 [Compound 4, Altenusin] | 10.7 ± 0.09 | > 30 | higher DPPH free-radical-scavenging activities than BHT | strong radical scavenging activity |
